Assay results from article PMC9007139 (Journal of medicinal chemistry, 2020).

Legend:
in vitro = conditions: rat, microsomes, pH 7.4
[1] = In vivo pharmacokinetics, rat; set-up: species or system Male Sprague-Dawley rats; conditions: male, Sprague-Dawley, plasma, iv, 0.3 mg/kg
[2] = In vivo pharmacokinetics, dog; set-up: species or system Male beagle dogs; conditions: male, beagle, plasma, iv, 0.3 mg/kg
Caco-2 permeability = type: in vitro ADME

Compound	CLint scaled at 1 uM (in vitro)	clearance [1]	clearance [2]	efflux in Caco-2 assay (Caco-2 permeability)
CNC(=O)c1cn(C[C@H](F)CCc2ccc(NC(=O)Cc3cc(-c4cccc(OC(F)(F)F)c4)ccn3)nn2)nn1 [Compound 25]	22 mL/min/kg	8 mL/min/kg	2.9 mL/min/kg	
CNC(=O)c1cn(C[C@H](F)CCc2ccc(NC(=O)Cc3cc(OC4CC(F)(F)C4)cc(C)n3)nn2)nn1 [Compound 27, (R)-1-(4-(6-(2-(4-(3,3-difluorocyclobutoxy)-6-methylpyridin-2-yl)acetamido)pyridazin-3-yl)-2-fluorobutyl)-N-methyl-1H-1,2,3-triazole-4-carboxamide]		0.3 mL/min/kg	0.6 mL/min/kg	mild efflux
CNC(=O)c1cn(C[C@H](F)CCc2ccc(NC(=O)Cc3cc(OC4CC(F)(F)C4)ccn3)nn2)nn1 [Compound 24]		3 mL/min/kg	3 mL/min/kg	
CNC(=O)c1cn(C[C@H](F)CCc2ccc(NC(=O)Cc3cc(C(F)(F)F)cc(C)n3)nn2)nn1 [Compound 26]		1 mL/min/kg	0.9 mL/min/kg	
